Reference: ChEMBL document CHEMBL1132823, “Fatty acid amide hydrolase substrate specificity” (Bioorg Med Chem Lett, 2000)

Target: T1, Fatty-acid amide hydrolase 1 (Rattus norvegicus) (UniProt P97612)
T1 sequence (whole entry): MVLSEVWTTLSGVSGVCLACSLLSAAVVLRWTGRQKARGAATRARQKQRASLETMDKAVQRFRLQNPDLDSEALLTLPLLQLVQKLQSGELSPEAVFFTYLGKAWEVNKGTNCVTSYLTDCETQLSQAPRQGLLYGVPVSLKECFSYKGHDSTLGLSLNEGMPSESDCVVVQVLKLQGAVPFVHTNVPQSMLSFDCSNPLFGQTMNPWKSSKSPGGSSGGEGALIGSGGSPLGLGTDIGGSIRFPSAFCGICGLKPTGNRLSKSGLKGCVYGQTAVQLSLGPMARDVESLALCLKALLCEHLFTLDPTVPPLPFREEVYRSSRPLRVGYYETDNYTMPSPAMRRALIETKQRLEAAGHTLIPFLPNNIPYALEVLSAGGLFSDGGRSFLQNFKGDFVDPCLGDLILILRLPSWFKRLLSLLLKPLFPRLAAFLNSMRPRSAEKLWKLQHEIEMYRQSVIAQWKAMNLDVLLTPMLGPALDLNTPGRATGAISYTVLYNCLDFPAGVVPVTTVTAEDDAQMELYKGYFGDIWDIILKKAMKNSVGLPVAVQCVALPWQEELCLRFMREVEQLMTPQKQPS
Test: Relative rate of fatty acid amide hydrolase hydrolysis of compound compared to that of oleamide.

Row | SMILES | Relative rate of hydrolysis
1 | CCCC/C=C\CCCCCCCCCCCC(N)=O | 0.82
2 | CCCCCCCCCCCCCC(N)=O | 0.83
3 | CCCCCCCCCC/C=C\CCCCCC(N)=O | 1.09
4 | CCCCC/C=C/C/C=C/CCCCCCCC(N)=O (stereo in doubt; 21) | 1.04
5 | CCCCCCCC/C=C/CCCCCCCC(N)=O | 0.52
6 | CC/C=C\CCCCCCCCCCCCCC(N)=O | 0.9
7 | CCCCCC/C=C\CCCCCCCCCCCC(N)=O | 1.03
8 | CCCCC/C=C/C/C=C/CCCCCCCC(N)=O (stereo in doubt; 22) | 0.54
9 | CCCCC/C=C/C/C=C/C/C=C/C/C=C/CCCC(N)=O | 3.11
10 | CCCCCCCC/C=C/CCCCCCNC(N)=O | < 0.001
11 | CCCCCCCCCCCCCCCC(N)=O | 0.72
12 | CCCCCCCC/C=C/CCCCCCC(C)C(N)=O (configuration not stated) | 0.07
13 | C1CCCCCCNCCCCC1 | 0.74
14 | CCCCC/C=C\C/C=C\C/C=C\C/C=C\CCCC(=O)NCCO | 1.68
15 | CCCCCCCCCCCCCC/C=C\CCCC(N)=O | 1.16
16 | CC/C=C/C/C=C/C/C=C/CCCCCCCC(N)=O | 1.38

Row | SMILES | Relative rate of hydrolysis
17 | CCCCC/C=C/C/C=C/CCCCCCCCCC(N)=O | 1.27
18 | CCCCCCCCCCCCCCCCCC(N)=O | 0.69
19 | CC/C=C/C/C=C/C/C=C/C/C=C/C/C=C/C/C=C/CCC(N)=O | 0.82
20 | CCCCCCCC/C=C\CCCCCCCCCC(N)=O | 1.05
21 | CCCCCCCC/C=C/CCCCCCC(C)(C)C(N)=O | 0.03
22 | CCCCCCCCCCC/C=C\CCCCCCC(N)=O | 1.12
23 | CCCCC/C=C/C/C=C/C/C=C/CCCCCCC(N)=O | 1.38
24 | CCCCCC/C=C/CCCCCCCC(N)=O | 0.79
25 | CCCCCCCC/C=C/CCCCCCOC(N)=O | 0.1
26 | CCCCCCCC/C=C\CCCCCCCC(N)=O | 1
27 | CCCCCCCC/C=C/CCCCCCCCCCCCCC(N)=O | 0.82
28 | CCCCCCCC/C=C/CCCCCCCCCCCC(N)=O | 0.83
29 | CCCC/C=C/CCCCCCCC(N)=O | 0.86
30 | CC/C=C/C/C=C/C/C=C/CCCCCCCCCC(N)=O | 1.4
31 | CCCCC/C=C\CCCCCCCCCCC(N)=O | 0.92
32 | CCCCCCCCCCC/C=C\CCCCC(N)=O | 0.91
